Measurements published in patent publication US10774071B2, “PD-1/PD-L1 inhibitors” (Gilead Sciences, Inc., priority 2018, dated 2020).
Like-named read-outs stand apart in the source and are kept apart here.

Experiments:
PD-L1 = PD-L1 (Homo sapiens (Human), UniProt Q9NZQ7); test: PD-L1/PD-L1 dimerization biochemical protein-protein interaction assay (ALPHA); format: binding; settings: read-out: AC50 PDL1 Dimer 1 nM
PD-1/PD-L1 = PD-1/PD-L1 (Homo sapiens (Human), UniProt Q9NZQ7); test: PD-1/PD-L1 biochemical protein-protein interaction assay (ALPHA); format: binding; settings: read-out: IC50 PD-L1-PD1
[1] = 0.5 nM His tagged PD-L1 and 0.5 nM FLAG tagged PD-L1, Table 4A
[2] = 0.3 nM His tagged PD-L1, 2.5 nM biotinylated Fc-PD-1, readings of 0.064 nM are equal to or less than 0.064 nM
[3] = 0.5 nM His tagged PD-L1 and 0.5 nM FLAG tagged PD-L1, Table 4B
[4] = 0.3 nM His tagged PD-L1, 2.5 nM biotinylated Fc-PD-1, Table 3B

PD-1/PD-L1, sequence (Q9NZQ7 19-238): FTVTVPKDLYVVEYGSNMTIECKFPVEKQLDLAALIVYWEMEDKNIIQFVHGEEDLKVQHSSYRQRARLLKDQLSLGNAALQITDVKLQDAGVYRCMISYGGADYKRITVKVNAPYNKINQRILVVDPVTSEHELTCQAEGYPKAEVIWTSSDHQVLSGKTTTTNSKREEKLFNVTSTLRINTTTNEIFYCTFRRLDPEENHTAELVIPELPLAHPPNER
PD-L1, sequence (Q9NZQ7 19-238): as above
PD-L1, sequence (Q9NZQ7 19-238): as above

SMILES | AC50 (PD-L1; [1]) | IC50 (PD-1/PD-L1; [2]) | AC50 (PD-L1; [3]) | IC50 (PD-1/PD-L1; [4])
COc1cc(-c2cccc(-c3cccc4c3CC[C@@H]4Nc3nc(OC)c(CNCC(=O)O)nc3C(F)(F)F)c2Cl)ccc1CNC1CC(O)(CF)C1 (stereo partly drawn) [A-108] | 6.64 nM | ≤ 0.064 nM | – | –
COc1nc(-c2cccc(-c3cccc4c3CC[C@@H]4Nc3nc(OC)c(CNCC(=O)O)nc3C(F)(F)F)c2Cl)ccc1CN[C@@H]1CCCC[C@@H]1O [A-109] | 8.98 nM | ≤ 0.064 nM | – | –
COc1nc(-c2cccc(-c3cccc4c3CC[C@@H]4Oc3nc(OC)c(CNC(C)(C)C(=O)O)cc3C(F)(F)F)c2Cl)ccc1CN[C@H]1C[C@](C)(O)C1 [B-1] | – | – | 1.11 nM | 0.064 nM
COc1nc(-c2cccc(-c3cccc4c3CC[C@@H]4Oc3nc(OC)c(CN4CC[C@@H](C(=O)O)C4)cc3C(F)(F)F)c2Cl)ccc1CN[C@H]1C[C@](C)(O)C1 [B-2] | – | – | 17.5 nM | 0.064 nM
COc1nc(-c2cccc(-c3cccc4c3CC[C@@H]4Oc3nc(OC)c(CN4CC[C@@H]5C[C@@]54C(=O)O)cc3C(F)(F)F)c2Cl)ccc1CN[C@H]1C[C@](C)(O)C1 [B-3] | – | – | 120 nM | 0.066 nM
COc1nc(-c2cccc(-c3cccc4c3CC[C@@H]4Oc3nc(OC)c(CN4CC5(C(=O)O)CCC4CC5)cc3C(F)(F)F)c2Cl)ccc1CN[C@H]1C[C@](C)(O)C1 [B-4] | – | – | 20.9 nM | 0.064 nM
COc1nc(-c2cccc(-c3cccc4c3CC[C@@H]4Oc3nc(OC)c(CN4CCC[C@H]4C(=O)O)cc3C(F)(F)F)c2Cl)ccc1CNC[C@@H]1CCC(=O)N1 [B-5] | – | – | 2.67 nM | 0.064 nM
COc1nc(-c2cccc(-c3cccc4c3CC[C@@H]4Oc3nc(OC)c(CN4CCC[C@@H]4C(=O)O)cc3C(F)(F)F)c2Cl)ccc1CNC[C@@H]1CCC(=O)N1 [B-6] | – | – | 7.96 nM | 0.064 nM
COc1nc(-c2cccc(-c3cccc4c3CC[C@@H]4Oc3nc(OC)c(CN4CC[C@H](C)[C@H]4C(=O)O)cc3C(F)(F)F)c2Cl)ccc1CNC[C@@H]1CCC(=O)N1 [B-7] | – | – | 4.04 nM | 0.064 nM
COc1nc(-c2cccc(-c3cccc4c3CC[C@@H]4Oc3nc(OC)c(CN4CCC[C@]4(C)C(=O)O)cc3C(F)(F)F)c2Cl)ccc1CNC[C@@H]1CCC(=O)N1 [B-8] | – | – | 13.2 nM | 0.064 nM
COc1nc(-c2cccc(-c3cccc4c3CC[C@@H]4Oc3nc(OC)c(CN4CC(C(=O)O)C4C)cc3Cl)c2Cl)ccc1CNC[C@@H]1CCC(=O)N1 (stereo partly drawn) [B-9] | – | – | 19.2 nM | 0.064 nM
COc1nc(-c2cccc(-c3cccc4c3CC[C@@H]4Oc3nc(OC)c(CN4CC(C)(C(=O)O)C4)cc3Cl)c2Cl)ccc1CNC[C@@H]1CCC(=O)N1 [B-10] | – | – | 5.4 nM | 0.064 nM
COc1nc(-c2cccc(-c3cccc4c3CC[C@@H]4Oc3nc(OC)c(CN4CC5CCC(C(=O)O)(C5)C4)cc3Cl)c2Cl)ccc1CNC[C@@H]1CCC(=O)N1 (stereo partly drawn) [B-11] | – | – | 71.4 nM | 0.066 nM
COc1nc(-c2cccc(-c3cccc4c3CC[C@@H]4Oc3nc(OC)c(CNC(C)(C)C(=O)O)cc3C(F)(F)F)c2Cl)ccc1CNC[C@@H]1CCC(=O)N1 [B-12] | – | – | 1.12 nM | 0.064 nM
COc1nc(-c2cccc(-c3cccc4c3CC[C@@H]4Oc3nc(OC)c(CN4CCC[C@@]4(C)C(=O)O)cc3C(F)(F)F)c2Cl)ccc1CNC[C@@H]1CCC(=O)N1 [B-13] | – | – | 3.92 nM | 0.064 nM
COc1nc(O[C@H]2CCc3c(-c4cccc(-c5ccc(CNC[C@@H]6CCC(=O)N6)c(OCC#N)n5)c4Cl)cccc32)c(Cl)cc1CNC1(C(=O)O)CC1 [B-14] | – | – | 15.7 nM | 0.064 nM
COc1nc(O[C@H]2CCc3c(-c4cccc(-c5ccc(CNC[C@@H]6CCC(=O)N6)c(OCC#N)n5)c4Cl)cccc32)c(Cl)cc1CN1CC[C@@H](C(=O)O)C1 [B-19] | – | – | 9.33 nM | 0.064 nM
COc1nc(-c2cccc(-c3cccc4c3CC[C@@H]4Oc3nc(OC)c(CNC45CC(C(=O)O)(C4)C5)cc3Cl)c2Cl)ccc1CNC[C@@H]1CCC(=O)N1 [B-20] | – | – | 33.7 nM | 0.064 nM
CNc1nc(-c2cccc(-c3cccc4c3CC[C@@H]4Oc3nc(OC)c(CN4CC[C@@H](C(=O)O)C4)cc3Cl)c2Cl)cnc1CN1CC(C)(O)C1 [B-21] | – | – | 31.2 nM | 0.064 nM
COc1nc(-c2cccc(-c3cccc4c3CC[C@@H]4Oc3nc(OCC#N)c(CNC4(C(=O)O)CC4)cc3C(F)(F)F)c2Cl)ccc1CNC[C@@H]1CCC(=O)N1 [B-22] | – | – | 13.4 nM | 0.074 nM
COc1nc(-c2cccc(-c3cccc4c3CC[C@@H]4Oc3nc(OC)c(CN4CC5(C(=O)O)CCC4CC5)cc3Cl)c2Cl)ccc1CNC1CC2CCC1N2C(C)=O (stereo partly drawn) [B-23] | – | – | 62.8 nM | 0.064 nM
COc1nc(-c2cccc(-c3cccc4c3CC[C@@H]4Oc3nc(OC)c(CN4CC5(CC(C(=O)O)C5)C4)cc3Cl)c2Cl)ccc1CNC[C@@H]1CCC(=O)N1 [B-24] | – | – | 19.4 nM | 0.064 nM
COc1nc(-c2cccc(-c3cccc4c3CC[C@@H]4Oc3nc(OC)c(CN4CCC(C)(C)C(C(=O)O)C4)cc3Cl)c2Cl)ccc1CNC[C@@H]1CCC(=O)N1 (stereo partly drawn) [B-25] | – | – | 17.8 nM | 0.064 nM

SMILES | AC50 (PD-L1; [1]) | IC50 (PD-1/PD-L1; [2]) | AC50 (PD-L1; [3]) | IC50 (PD-1/PD-L1; [4])
COc1nc(-c2cccc(-c3cccc4c3CC[C@@H]4Oc3nc(OC)c(CN4CCC5(C(=O)O)CC45)cc3Cl)c2Cl)ccc1CNC[C@@H]1CCC(=O)N1 (stereo partly drawn) [B-26] | – | – | 18.4 nM | 0.064 nM
COc1nc(-c2cccc(-c3cccc4c3CC[C@@H]4Oc3nc(OC)c(CNCCC(=O)O)cc3Cl)c2Cl)ccc1CNC[C@@H]1CCC(=O)N1 [B-27] | – | – | 11.2 nM | 0.064 nM
CNC(=O)C1CCN(Cc2cc(Cl)c(O[C@H]3CCc4c(-c5cccc(-c6cnc(CNC[C@@H]7CCC(=O)N7)c(OC)n6)c5Cl)cccc43)nc2OC)C1 (stereo partly drawn) [B-28] | – | – | 26.9 nM | 0.088 nM
COc1nc(-c2cccc(-c3cccc4c3CC[C@@H]4Oc3nc(OCc4cc(F)cc(C#N)c4)c(CN4CC5(C(=O)O)CCC4CC5)cc3Cl)c2Cl)ccc1CNC[C@@H]1CCC(=O)N1 [B-30] | – | – | 58.3 nM | 0.158 nM
COc1nc(-c2cccc(-c3cccc4c3CC[C@@H]4Oc3nc(OCc4cc(Cl)cc(C#N)c4)c(CN4CC5(C(=O)O)CCC4CC5)cc3Cl)c2Cl)ccc1CNC[C@@H]1CCC(=O)N1 [B-31] | – | – | 32.3 nM | 0.085 nM
COc1nc(-c2cccc(-c3cccc4c3CC[C@@H]4Oc3nc(OCc4cncc(Cl)c4)c(CNC4(C(=O)O)CC4)cc3Cl)c2Cl)ccc1CNC[C@@H]1CCC(=O)N1 [B-32] | – | – | 12.9 nM | 0.095 nM
COc1nc(O[C@H]2CCc3c(-c4cccc(-c5cnc(CNC[C@@H]6CCC(=O)N6)c(OC)n5)c4Cl)cccc32)c(Cl)cc1CNC1CC(NC(C)=O)C1 (stereo partly drawn) [B-34] | – | – | 22.3 nM | 0.111 nM
COc1nc(-c2cccc(-c3cccc4c3CC[C@@H]4Oc3nc(OC)c(CN4CC[C@@H](C(=O)O)C4)nc3Br)c2Cl)cnc1CNC[C@@H]1CCC(=O)N1 [B-37] | – | – | 28 nM | 0.064 nM
COc1nc(-c2cccc(-c3cccc4c3CC[C@@H]4Oc3nc(OC)c(CNC[C@@H]4CCC(=O)N4)nc3Br)c2Cl)cnc1CNC[C@@H]1CCC(=O)N1 [B-38] | – | – | 46.5 nM | 0.095 nM
COc1cc(-c2cccc(-c3cccc4c3CC[C@@H]4Oc3nc(OC)c(CN4CC5(C(=O)O)CCC4CC5)cc3Cl)c2Cl)ccc1CNC[C@@H]1CCC(=O)N1 [B-39] | – | – | 3.8 nM | 0.064 nM
COc1cc(-c2cccc(-c3cccc4c3CC[C@@H]4Oc3nc(OC)c(CN4CC[C@@H](C(=O)O)C4)cc3Cl)c2Cl)ccc1CNC[C@@H]1CCC(=O)N1 [B-41] | – | – | 3.59 nM | 0.064 nM
COc1cc(-c2cccc(-c3cccc4c3CC[C@@H]4Oc3nc(OC)c(CN4CC(C(=O)O)C4)cc3Cl)c2Cl)ccc1CNC[C@@H]1CCC(=O)N1 [B-42] | – | – | 12.5 nM | 0.064 nM
COc1nc(O[C@H]2CCc3c(-c4cccc(-c5cnc(CNC[C@@H]6CCC(=O)N6)c(OC)n5)c4Cl)cccc32)c(Cl)cc1CN1CC(C(=O)O)C1 [B-43] | – | – | 44.3 nM | 0.064 nM
COc1nc(-c2cccc(-c3cccc4c3CC[C@@H]4Oc3nc(OC)c(CN4CC(C(=O)O)C4)nc3Cl)c2Cl)cnc1CNC[C@@H]1CCC(=O)N1 [B-44] | – | – | 17.9 nM | 0.064 nM
COc1nc(-c2cccc(-c3cccc4c3CC[C@@H]4Oc3nc(OC)c(CN4CC5(C(=O)O)CCC4CC5)nc3Cl)c2Cl)cnc1CNC[C@@H]1CCC(=O)N1 [B-45] | – | – | 20.2 nM | 0.064 nM
COc1nc(-c2cccc(-c3cccc4c3CC[C@@H]4Oc3nc(OCc4cncc(Cl)c4)c(CN4CC5(C(=O)O)CCC4CC5)cc3Cl)c2Cl)ccc1CNC[C@@H]1CCC(=O)N1 [B-48] | – | – | 7.12 nM | 0.064 nM
COc1nc(-c2cccc(-c3cccc4c3CC[C@@H]4Oc3nc(OCc4cncc(Cl)c4)c(CN4CC[C@H](C(=O)O)C4)cc3Cl)c2Cl)ccc1CNC[C@@H]1CCC(=O)N1 [B-49] | – | – | 19.1 nM | 0.064 nM
COc1nc(-c2cccc(-c3cccc4c3CC[C@@H]4Oc3nc(OC)c(CN4CC5(C(=O)O)CCC4CC5)cc3Cl)c2Cl)ccc1CN[C@H]1CCCC[C@H]1O [B-50] | – | – | 26.1 nM | 0.064 nM
COc1nc(-c2cccc(-c3cccc4c3CC[C@@H]4Oc3nc(OC)c(CN4CC5(C(=O)O)CCC4CC5)cc3Cl)c2Cl)ccc1CN1CC[C@@H](O)C1 [B-51] | – | – | 27.5 nM | 0.064 nM
COc1nc(-c2cccc(-c3cccc4c3CC[C@@H]4Oc3nc(OC)c(CN4CC5(C(=O)O)CCC4CC5)cc3Cl)c2Cl)ccc1CN[C@@H]1CCC[C@@H]1O [B-52] | – | – | 46.4 nM | 0.095 nM
COc1nc(-c2cccc(-c3cccc4c3CC[C@@H]4Oc3nc(OCc4ccc(-n5cccn5)nc4)c(CN4CC5(C(=O)O)CCC4CC5)cc3Cl)c2Cl)ccc1CNC[C@@H]1CCC(=O)N1 [B-56] | – | – | 41 nM | 0.189 nM
COc1nc(O[C@H]2CCc3c(-c4cccc(-c5cc(C)c(CN6CC(C)(O)C6)c(OC)n5)c4Cl)cccc32)c(Cl)cc1CN1CC2(C(=O)O)CCC1CC2 [B-57] | – | – | 66.5 nM | 0.08 nM
